Assay [1] relates to K562 cells. The assay can be described thus: Live-cell imaging (IncuCyte HD) of proliferation and cytotoxicity, K562 cells. The assay is classed as cell-based, human. The note with it: Homo sapiens, 96 h; IM sensitive K562, continuous exposure over 4-day period, area under curve; read-out: IC50AUC, cytostatic effect on cell growth. As for the experimental part: Kinetic measurements of cell proliferation and cytotoxicity were carried out by using the IncuCyte^TM HD real time imaging system (Essen BioScience, Hertfordshire, United Kingdom). After seeding in a polylysine-coated 96 well-plates, K562 cells were treated with different concentrations of compound. This IncuCyte™ microscope permits the acquisition of automated phase contrast images. Individual images are processed by an imbedded contrast-based confluence algorithm, which compute monolayer confluence for each image and at each time point. Multiple images are collected per well and averaged to provide a representative statistical measure of confluence.

Assay [2] relates to pTyr694-Stat5 (pYStat5). The assay can be described thus: Immunoblotting of constitutive pYStat5 in K562 cells. The assay is classed as cell-based. The settings on record: Homo sapiens; K562, 0.05 μM IM, 3 h. As for the experimental part: Then, cells were rinsed with cold PBS-vanadate (1 mM) followed by preparation of whole lysis extract with RIPA (Pierce, Illinois, USA). Equal amounts of each sample were separated by SDS-PAGE and transfered onto nitrocellulose membranes. After being blocked with 1% BSA-1% Blotto (anti-phospho-antibodies) (Santa Cruz Biotechnology, CA, USA) or 5% blotto (anti-total-antibodies) (Santa Cruz Biotechnology, CA, USA) (both diluted in Tris buffered saline with 0.05% Tween 20), membranes were immunoblotted overnight at 4°C with dilution (1:1000) in the same buffer of blocking of primary phosphoprotein or total protein antibodies. […] To control for differences in loading and transfer efficiency across membranes, membranes were incubated with a monoclonal mouse anti-beta actin antibody (Santa Cruz Biotechnology, CA, USA). The phosphoprotein array analysis of K562 cells was carried out by using the Profiler Human Phospho-Kinase Array Kit ARY003B (R&D Systems, Minneapolis, MN, USA) according to the manufacturer`s instructions.

Where a name gives a salt, the structure may show the parent alone.

As usually defined, the inhibition is the share of the control response that was lost under treatment. Read a low inhibition as a weak effect.

On to `Cc1ccc(NC(=O)c2ccc(CN3CCN(C)CC3)cc2)cc1Nc1nccc(-c2cccnc2)n1` [IM, imatinib mesylate, reference compound], for which, in assay [1], the IC50 is 200 ± 100 nM. In assay [2], this compound displayed an inhibition at 0.05 µM of 40%.

Source of the values: paper PMC5444695, “CM363, a novel naphthoquinone derivative which acts as multikinase modulator and overcomes imatinib resistance in chronic myelogenous leukemia” (Oncotarget, 2016).
